Results reported in patent publication US4847302A, “Use of certain compounds in livestock food as growth promotants for better feed utilization and improved carcass composition” (Merck & Co., Inc., priority 1988, dated 1989).
Where two headings read alike, the source gives them in different places.

Columns and labels:
[1] = tested on: Isolated Chicken Hepatocytes; assay: Inhibition of lipogenesis (14C acetate incorporation) in isolated chicken hepatocytes; format: cell-based; conditions: for inhibition at 0.01 µM / inhibition at 0.05 µM / inhibition at 0.25 µM: Gallus gallus, Hepatocyte, 2 h, read-out: percent change compared to control, 14C acetate incorporation in fatty acids; for percent change compared to control, 14C acetate incorporation in fatty acids: 120 min
Description: Determination of anti-lipogenic activity in hepatocytes
Hepatocytes were isolated from chicken liver using the procedure for adipocytes and incubated for 2 hours at 37° C. in the presence of ^14 C acetate and test compounds. […] Isoproterenol, at the same concentrations, was used as a positive control. After incubation, 8 ml Doles reagent (isopropanol:hexane:H2 SO4, 40:10:1) was added and incubation vials were shaken at room temperature for 30 minutes. Vial contents were poured into 50 ml screw-cap tubes. Vials were then rinsed with 6 ml hexane which was poured into the appropriate 50 ml tube. Tubes were shaken by hand, 10 ml H2 O was added, and tubes were shaken again. After phase separation, 2 ml of the upper (hexane) phase was removed to scintillation vials. Hexane was evaporated by a gentle air flow and the remaining lipids were resuspended in 10 ml Scinti Verse II. ^14 C was counted in a Packard liquid scintillation counter. Data are reported as CPM of ^14 C acetate incorporated into total lipids.

[2] = tested on: Isolated Swine Adipocytes; assay: Stimulation of lipolysis (glycerol production) in isolated swine adipocytes; format: cell-based; conditions: for activation at 0.01 µM / activation at 0.05 µM / activation at 0.25 µM: Sus scrofa, Adipocyte, 2 h, read-out: percent increase compared to control, glycerol production
Description: (§1) Fat was collected from freshly killed animals as follows: epididymal and perirenal fat from 150 to 200 g male rates; perirenal fat from 20 to 25 kg whether lambs, and perirenal and omental fat from 35 to 50 kg gilts. Immediately after collection, fat was placed in a siliconized beaker (all glassware was siliconized) containing Krebs-Ringer bicarbonate solution (KRB; pH 7.4) at 37° C. Fat was transferred to a clean beaker and finely chopped with scissors. Chopped fat was then used as such (whole adipose preparation) or treated with collagenase (isolated adipocytes).
(§2) Chopped fat was placed in a shaker containing 70 ml cell dispersion medium (CDM; 5 mM glucose, 0.1% collagenase, 4% bovine serum albumin (BSA), in KRB) and incubated at 37° C. for 1 hour with gentle shaking. Fat was then filtered to remove clumps and washed 4 times with washing medium (WM; 2.5 mM glucose, 1% BSA, in KRB) and 1 time with final suspension medium (FSM; 2.5 mM glucose, 2% essentially fatty acid free BSA, in KRB). Isolated adipocytes were then resuspended in the required amount of FSM (1 ml/flask, 3 flasks/treatment).
(§3) Whole adipose tissue from the rat (0.3 ml) or isolated adipocytes from sheep or swine (1 ml) were placed in plastic scintillation vials containing FSM (1.7 or 1 ml, respectively) and test compounds, and incubated at 37° C. for 2 hours. […] Isoproterenol, at the same concentrations, was used as a positive control. After incubation, media was removed and assayed for glycerol by a fluorometric modification of the method of Wieland (1974. Glycerol UV-method. pp. 1404. In: Bergmeyer (Ed.) Methods of Enzymatic Analysis. Verlag Chemie Weinham, Academic Press, New York).

[3] = tested on: Isolated Ovine Adipocytes; assay: Stimulation of lipolysis (glycerol production) in isolated ovine adipocytes; format: cell-based, sheep; conditions: for activation at 0.01 µM / activation at 0.05 µM / activation at 0.25 µM: Ovis aries, Adipocyte, 2 h, read-out: percent increase compared to control, glycerol production
Description: as §1, §2, §3

Rat Adipose Tissue = assay: Stimulation of lipolysis (glycerol production) in chopped rat adipose tissue; format: cell-based; conditions: for activation at 0.01 µM / activation at 0.05 µM / activation at 0.25 µM: Rattus norvegicus, 2 h, read-out: percent increase compared to control, glycerol production
Description: as §1
as §3, with “York). […]” for “York).”

[4] = In vivo testing in rats: growth, feed conversion and carcass composition; design: species or system rat (male Charles River CD); conditions: in diet, dose equivalent to 20 ppm clenbuterol (clenbuterol: 10)
Excerpt: Eighty intact, male Charles River CD rats, 75-90 g, were housed and maintained on rat chow and water ad libitum. After four days acclimation ten rats per group were randomized by weight to treatment and pen. Compounds to be tested were premixed and added to ground rat chow using doses equivalent to 20 ppm of clenbuterol on a molecular weight basis. It had previously been determined 10 ppm of clenbuterol was the minimum dose needed to give maximum improvements in gain and feed conversion. Therefore, the results of any compound tested should cause responses similar to clenbuterol if the compound has half or more the activity of clenbuterol.

[5] = Growth promoting activity / feed utilization in livestock (general statements); format: in vivo; conditions: in vivo

COc1ccc(CNc2cc(C(O)CNC(C)(C)C)ccc2O)cc1 (centres unmarked) [III]
inhibition at 0.01 µM ([1]; Test 1, 0.01 μM): 9.5%
inhibition at 0.05 µM ([1]; Test 1, 0.05 μM): 35.5%
inhibition at 0.25 µM ([1]; Test 1, 0.25 μM): 54.4%
activation at 0.01 µM ([2]; Test 1, 0.01 μM): 20%
activation at 0.05 µM ([2]; Test 1, 0.05 μM): 33%
activation at 0.25 µM ([2]; Test 1, 0.25 μM): 53%
activation at 0.01 µM ([3]; Test 1, 0.01 μM): 465%
activation at 0.05 µM ([3]; Test 1, 0.05 μM): 845%
activation at 0.01 µM (Rat Adipose Tissue; Test 1, 0.01 μM): 194%
activation at 0.05 µM (Rat Adipose Tissue; Test 1, 0.05 μM): 203%
activation at 0.25 µM (Rat Adipose Tissue; Test 1, 0.25 μM): 334%
Gain ([4]; Test 1, control 7.3): 8.0 g/day
Feed Intake ([4]; Test 1, control 18.6): 19.4 g/day
Weight ([4]; Test 1, control 191.8): 201.7 g
Carcass Composition % of Change over Control, Fat ([4]; Test 1): -7.0%
Carcass Composition % of Change over Control, Protein ([4]; Test 1): 6.1%

CC(C)(C)NCC(O)c1ccc(O)c(CO)n1 (centres unmarked) [VII, Pirbuterol]
Gain ([4]; Test 1, control 7.3): 8.0 g/day
Feed Intake ([4]; Test 1, control 18.6): 19.8 g/day
Weight ([4]; Test 1, control 191.8): 200.9 g
Carcass Composition % of Change over Control, Fat ([4]; Test 1): -8.7%
Carcass Composition % of Change over Control, Protein ([4]; Test 1): 3.6%

C[C@H](CCc1ccccc1)NC[C@H](O)c1ccc(N)nc1 [α-R,1R compound]
activity compared with the other optical isomers of compound IV [5]: significantly more active than the most active of the other isomers

Cn1c(=O)c2c(ncn2CCCNCC(O)c2cc(O)cc(O)c2)n(C)c1=O (centres unmarked) [VI, Reproterol]
inhibition at 0.01 µM ([1]; Test 1, 0.01 μM): 0%
inhibition at 0.05 µM ([1]; Test 1, 0.05 μM): 0%
inhibition at 0.25 µM ([1]; Test 1, 0.25 μM): 8.6%
inhibition at 0.01 µM ([1]; Test 2, 0.01 μM): -3%
inhibition at 0.05 µM ([1]; Test 2, 0.05 μM): 12%
inhibition at 0.25 µM ([1]; Test 2, 0.25 μM): 25%
activation at 0.01 µM ([2]; Test 1, 0.01 μM): 20%
activation at 0.05 µM ([2]; Test 1, 0.05 μM): -7%
activation at 0.25 µM ([2]; Test 1, 0.25 μM): 0%
activation at 0.01 µM ([2]; Test 2, 0.01 μM): 8%
activation at 0.05 µM ([2]; Test 2, 0.05 μM): 21%
activation at 0.25 µM ([2]; Test 2, 0.25 μM): 3%
activation at 0.05 µM ([3]; Test 1, 0.05 μM): 130%
activation at 0.25 µM ([3]; Test 1, 0.25 μM): 465%
activation at 0.01 µM ([3]; Test 2, 0.01 μM): -14%
activation at 0.05 µM ([3]; Test 2, 0.05 μM): 129%
activation at 0.25 µM ([3]; Test 2, 0.25 μM): 700%
activation at 0.01 µM (Rat Adipose Tissue; Test 1, 0.01 μM): 63%
activation at 0.05 µM (Rat Adipose Tissue; Test 1, 0.05 μM): 86%
activation at 0.25 µM (Rat Adipose Tissue; Test 1, 0.25 μM): 86%
activation at 0.01 µM (Rat Adipose Tissue; Test 2, 0.01 μM): 13%
activation at 0.05 µM (Rat Adipose Tissue; Test 2, 0.05 μM): 16%
activation at 0.25 µM (Rat Adipose Tissue; Test 2, 0.25 μM): 13%
Gain ([4]; Test 2, control 7.5): 8.3 g/day
Feed Intake ([4]; Test 2, control 19.3): 21.2 g/day
Weight ([4]; Test 2, control 202.3): 213.4 g
Carcass Composition % of Change over Control, Fat ([4]; Test 2): 2.5%
Carcass Composition % of Change over Control, Protein ([4]; Test 2): 0.5%

CC(C)NCC(O)c1ccc(O)c(O)c1 (centres unmarked) [Isoproterenol]
inhibition at 0.01 µM ([1]; Test 1, 0.01 μM): 29.1%
inhibition at 0.05 µM ([1]; Test 1, 0.05 μM): 48.6%
inhibition at 0.25 µM ([1]; Test 1, 0.25 μM): 70.3%
inhibition at 0.01 µM ([1]; Test 2, 0.01 μM): 21%
inhibition at 0.05 µM ([1]; Test 2, 0.05 μM): 15%
inhibition at 0.25 µM ([1]; Test 2, 0.25 μM): 49%
activation at 0.01 µM ([2]; Test 1, 0.01 μM): 40%
activation at 0.05 µM ([2]; Test 1, 0.05 μM): 140%
activation at 0.25 µM ([2]; Test 1, 0.25 μM): 660%
activation at 0.01 µM ([2]; Test 2, 0.01 μM): 175%
activation at 0.05 µM ([2]; Test 2, 0.05 μM): 196%
activation at 0.25 µM ([2]; Test 2, 0.25 μM): 820%
activation at 0.01 µM ([3]; Test 1, 0.01 μM): 670%
activation at 0.01 µM ([3]; Test 2, 0.01 μM): 600%
activation at 0.01 µM (Rat Adipose Tissue; Test 1, 0.01 μM): 45%
activation at 0.05 µM (Rat Adipose Tissue; Test 1, 0.05 μM): 173%
activation at 0.25 µM (Rat Adipose Tissue; Test 1, 0.25 μM): 290%
activation at 0.01 µM (Rat Adipose Tissue; Test 2, 0.01 μM): 49%
activation at 0.05 µM (Rat Adipose Tissue; Test 2, 0.05 μM): 154%
activation at 0.25 µM (Rat Adipose Tissue; Test 2, 0.25 μM): 216%

CC(C)N[C@H]1CCc2c(ccc(O)c2CO)[C@@H]1O.Cl [VIII]
percent change compared to control, 14C acetate incorporation in fatty acids ([1]; Test 2, 0.01 μM): 26%
percent change compared to control, 14C acetate incorporation in fatty acids ([1]; Test 2, 0.05 μM): -9%
percent change compared to control, 14C acetate incorporation in fatty acids ([1]; Test 2, 0.25 μM): -34%
percent increase compared to control, glycerol production ([2]; Test 1, 0.01 μM): 13%
percent increase compared to control, glycerol production ([2]; Test 1, 0.05 μM): 147%
percent increase compared to control, glycerol production ([2]; Test 1, 0.25 μM): 180%
percent increase compared to control, glycerol production ([2]; Test 2, 0.01 μM): 61%
percent increase compared to control, glycerol production ([2]; Test 2, 0.05 μM): 59%
percent increase compared to control, glycerol production ([2]; Test 2, 0.25 μM): 460%
percent increase compared to control, glycerol production ([3]; Test 1, 0.01 μM): 135%
percent increase compared to control, glycerol production ([3]; Test 1, 0.05 μM): 445%
percent increase compared to control, glycerol production ([3]; Test 1, 0.25 μM): 565%
percent increase compared to control, glycerol production ([3]; Test 2, 0.01 μM): 71%
percent increase compared to control, glycerol production ([3]; Test 2, 0.05 μM): 1143%
percent increase compared to control, glycerol production ([3]; Test 2, 0.25 μM): 1800%
percent increase compared to control, glycerol production (Rat Adipose Tissue; Test 1, 0.01 μM): 19%
percent increase compared to control, glycerol production (Rat Adipose Tissue; Test 1, 0.05 μM): 26%
percent increase compared to control, glycerol production (Rat Adipose Tissue; Test 1, 0.25 μM): 21%
percent increase compared to control, glycerol production (Rat Adipose Tissue; Test 2, 0.01 μM): -7%
percent increase compared to control, glycerol production (Rat Adipose Tissue; Test 2, 0.05 μM): 4%
percent increase compared to control, glycerol production (Rat Adipose Tissue; Test 2, 0.25 μM): 7%
Feed Conversion ([4]; Test 1, control 2.55): 2.41
Gain ([4]; Test 1, control 7.3): 8.1 g/day
Feed Intake ([4]; Test 1, control 18.6): 19.5 g/day
Weight ([4]; Test 1, control 191.8): 202.6 g
Carcass Composition % of Change over Control, Fat ([4]; Test 1): -6.1%
Carcass Composition % of Change over Control, Protein ([4]; Test 1): 6.4%

CC(C)(C)NCC(O)c1cc(Br)no1 (centres unmarked) [II]
inhibition at 0.01 µM ([1]; Test 1, 0.01 μM): 0%
inhibition at 0.05 µM ([1]; Test 1, 0.05 μM): 0%
inhibition at 0.25 µM ([1]; Test 1, 0.25 μM): 7.9%
activation at 0.01 µM ([2]; Test 1, 0.01 μM): 27%
activation at 0.05 µM ([2]; Test 1, 0.05 μM): -7%
activation at 0.25 µM ([2]; Test 1, 0.25 μM): -40%
activation at 0.25 µM ([3]; Test 1, 0.25 μM): 325%
percent increase compared to control, glycerol production ([3]; Test 1, 0.05 μM): inactive
activation at 0.01 µM (Rat Adipose Tissue; Test 1, 0.01 μM): 51%
activation at 0.05 µM (Rat Adipose Tissue; Test 1, 0.05 μM): 15%
activation at 0.25 µM (Rat Adipose Tissue; Test 1, 0.25 μM): 35%
Gain ([4]; Test 2, control 7.5): 8.4 g/day
Feed Intake ([4]; Test 2, control 19.3): 21.1 g/day
Weight ([4]; Test 2, control 202.3): 215.9 g
Carcass Composition % of Change over Control, Fat ([4]; Test 2): -9.3%
Carcass Composition % of Change over Control, Protein ([4]; Test 2): 3.8%
